# Experiments:
# Assay in all cases: relative viability (nuclei count vs DMSO), 5 days (fraction); higher = more cells survive
# [1] = compound: C1CNCCC1C2=CC(=NN2)C3=CC=NC=C3 + C[C@@H](Oc1cc(-c2cnn(C3CCNCC3)c2)cnc1N)c1c(Cl)ccc(F)c1Cl [Crizotinib] (partner 1 µM)
# Method in brief: (§1)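 For relative viability, nuclei counts in treated wells were divided by those in vehicle wells. Lung cancer cell lines had been pin-tool dosed in 1536-well plates the day after seeding and cultured for 5 days, then fixed and stained in one step (final 0.05% Triton X-100, 1% formaldehyde, 1 ug/ml Hoechst) and imaged at 4×. Doses were one drug alone or a fixed anchor-drug dose plus five library-drug doses (not always all listed) in √10 steps, and values are duplicate-plate medians.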
# [2] = compound: C1CNCCC1C2=CC(=NN2)C3=CC=NC=C3 + C[C@]1(O)C[C@@H](c2nc(-c3ccc4ccc(-c5ccccc5)nc4c3)c3c(N)nccn32)C1 [Linsitinib] (partner 1 µM)
# Method in brief: as §1
# [3] = compound: C1CNCCC1C2=CC(=NN2)C3=CC=NC=C3 + Nc1ncn([C@H]2C[C@H](O)[C@@H](CO)O2)c(=O)n1 [Decitabine] (partner 2 µM)
# Method in brief: as §1
# Tanzisertib + Bortezomib = compound: O[C@H]1CC[C@H](Nc2ncc3nc(Nc4c(F)cc(F)cc4F)n([C@H]4CCOC4)c3n2)CC1 [Tanzisertib] + CC(C)C[C@H](NC(=O)[C@H](Cc1ccccc1)NC(=O)c1cnccn1)B(O)O [Bortezomib] (partner 0.002 µM)
# Method in brief: as §1
Cell Line,relative viability ([1]; first compound 0.08 µM),relative viability ([1]; first compound 0.8 µM),relative viability ([1]; first compound 2.53 µM),relative viability ([1]; first compound 8 µM),relative viability ([2]; first compound 0.08 µM),relative viability ([2]; first compound 0.8 µM),relative viability ([2]; first compound 2.53 µM),relative viability ([2]; first compound 8 µM),relative viability ([3]; first compound 0.08 µM),relative viability ([3]; first compound 0.8 µM),relative viability ([3]; first compound 2.53 µM),relative viability ([3]; first compound 8 µM),relative viability (Tanzisertib + Bortezomib; first compound 0.08 µM),relative viability (Tanzisertib + Bortezomib; first compound 0.253 µM),relative viability (Tanzisertib + Bortezomib; first compound 0.8 µM),relative viability (Tanzisertib + Bortezomib; first compound 2.53 µM),relative viability (Tanzisertib + Bortezomib; first compound 8 µM)
201T,1.01,1.01,1.02,0.991,1.02,1.01,0.996,1.04,0.835,0.857,0.846,0.866,1.08,1.17,1.1,1.12,1.08
A549,0.784,0.849,0.857,0.797,0.509,0.556,0.696,0.729,0.208,0.282,0.302,0.146,–,–,–,–,–
A-427,0.874,0.93,0.944,0.846,1.09,1.09,1.15,1.07,0.557,0.603,0.578,0.498,1.09,0.938,1.01,0.96,0.927
ABC-1,0.988,1.12,1.04,1.18,0.702,0.644,0.685,1.01,1.23,1.02,1.32,1.08,0.292,0.346,0.268,0.356,0.228
BEN,0.644,0.87,0.878,0.823,0.689,0.984,0.921,0.913,0.676,0.652,0.779,0.777,0.944,0.954,0.781,0.85,0.729
CAL-12T,0.473,0.74,0.716,0.774,0.792,0.754,0.9,0.872,–,–,–,–,1.04,1.2,1.18,1.01,0.825
COR-L23,0.651,0.615,0.719,0.695,0.931,1.05,0.984,0.918,0.424,0.429,0.516,0.47,1.13,0.982,0.975,1.11,1.04
COR-L 105,0.649,0.982,0.799,0.906,0.986,0.896,0.965,0.926,0.568,0.729,0.687,0.772,0.818,0.708,0.99,0.877,0.482
